# Measured values reported in patent publication US6887879B2, “Pharmaceutical combination of antiviral agents” (priority 1999, dated 2005).
# Like-named read-outs stand apart in the source and are kept apart here.
# Assays:
# wt HIV-1 RT [1] = molecular target: T1, wt HIV-1 RT (Human immunodeficiency virus type 1 group M subtype B, UniProt P04585); assay: RT inhibition assay, RNA dependent DNA polymerase activity; assay type: biochemical; conditions: template/primer poly(rA).oligo(dT)12-18; substrate dTTP
# T1 construct: Wild type (wt) version of recombinant HIV-1 RT were expressed with a histidine tag; histidine tag; made in house; host or cells: E. coli
# Method: Wild type (wt) version of recombinant HIV-1 RT were expressed with a histidine tag in an E. coli protein expression system.
# RT inhibition assay. The inhibition of HIV-1 RT RNA dependent DNA polymerase activity of DXG-TP was assessed under steady-state enzymatic kinetics by employing homopolymeric RNA templates/DNA primers (T/P) and a heteropolymeric RNA template/DNA primer. The heteropolymeric RNA template contains the HIV-1 primer binding sequence, US and R regions (designated as HIV-PBS). […] The oligodeoxynucleotide primer (dPR) is an 18-mer (5′-[…]-3′) which is complementary to the HIV-1 primer binding sequence. […] The reverse transcription reaction contained final concentrations of 50 mM Tris-HCl, pH 7.8, 60 mM KCl, 10 mM MgCl2, 0.1 U/ml homopolymeric T/P and 5 μM [^3H]dNTP substrate or 25 nM HIV-PBS/dPR and 5 μM each of dTTP, dCTP, dGTP and [-^32P]dATP in […]. […] Inhibition of dNTP incorporation/chain termination. The effect of DXG-TP on RT activity was also assessed using the chain termination/dNTP incorporation assay in which inhibition of nascent DNA synthesis (chain termination) was monitored based upon cDNA synthesis as previously described (Arts et al., 1993; J. Biol. Hem. 269:14672-14680 and Gu et al., 1995, Proc. Natl. Acad. Sci. USA 92:2760-2764). HIV-PBS RNA template and dPR DNA primer were used in this system. The RT reactions were performed in […] containing 50 mM Tris (pH 7.8), 75 mM KCl, 10 mM MgCl2, 100 μM of dNTPs. The HIV-PBS RNA template (50 nM) and [−^32P]-ATP labeled oligodeoxynucleotide primer (125 nM) were included in the reaction. The mixture was first denatured at 85° C. for 2 minutes, then cooled to 55° C. for 8 min, and finally cooled to 37° C. at which time recombinant HIV RT was added (42.5 nM). The reactions were allowed to proceed at 37° C. for 60 min in the presence or absence of inhibitors. The transcribed DNA products were separated on a 5% denaturing polyacrylamide gel and visualized by exposure to X-ray film.
# [2] = Cytotoxicity, [3H]-thymidine uptake, DU145; assay type: cell-based; conditions: human, DU145 cells
# Method: (§1) The cellular toxicity of the BCH compounds were assessed on various cells using [^3H]-thymidine uptake. The various cells, including Molt-4, HT1080, DU-145, HepG 2 and HSF, were plated at a concentration of 1-2×10^3 cells per well (96 well plates). However, PHA-stimulated PBMCs were cultured at a concentration of 4×10^4. After a 24 hr incubation period, 10-fold serial diluted compounds (10^−4 M to 10^−10 M) were added to the culture medium and the cells were further incubated for 72 hrs. [^3H]-thymidine was added during the final 18 hr incubation period. After incubation with the [^3H]-thymidine, the cells were washed once with PBS, treated with trypsin it the cells were adherent, and then resuspended in water (hypotonic lysing of cells) The cellular extract was applied directly to a Tomtec Harvester 96. Using this instrument the extracted DNA is adsorbed onto filters, washed and the incorporated [^3H]-thymidine is then counted.
# [3] = Cytotoxicity, [3H]-thymidine uptake, HSF; assay type: cell-based; conditions: human, human skin fibroblasts (HSF)
# Method: as §1
# HIV-1IIIB = assay: Anti-HIV-1 antiviral assay, laboratory strain HIV-1IIIB, RT activity in culture supernatants
# Method: Most experiments were performed with a laboratory strain HIV-1III. […] The cells were incubated with virus using the indicated multiplicity of infection (MOI) for 2-3 hrs. The MOI used for each experiment was dependent upon the cell line and virus strain used, and was generally in the range of 0.005 to 0.5. For example, in assays performed using the established cell line MT-2, HIV-1IIIB at an MOI of 0.005 was used to infect cells. The unbound virus was then removed by washing the cells, followed by plating the cells into a 96-well plate. The infected cells were cultured in the presence of a serial concentrations of the test compound for 5-7 days. The anti-HIV-1 efficacy was determined by testing for HIV-1 RT activity in the cell culture supernatants. All assays were performed in duplicate and at least two independent experiments were performed. […] The susceptibilities of the HIV-1 variants to antiretroviral agents are expressed as the mean of the EC50 determinations.
# [4] = Cytotoxicity, [3H]-thymidine uptake, HepG2; assay type: cell-based; conditions: human, HepG2 cells
# Method: as §1
# recombinant HXB2-D 65R = assay: microbe, parasite or virus in culture; assay type: cell-based, HIV-1; conditions: Human immunodeficiency virus 1, HXB2, read-out: EC50 in CBMCs
# Method: (§2) HIV-1IIIB laboratory strain and HXB2-D recombinant of HIV-1 were kindly supplied by R. C. Gallo (Institute of Human Virology, Baltimore, Md.). […] The recombinant viruses were generated by transfection of proviral DNA into MT-4 cells with Lipofectamine using the protocol recommended by the manufacturer .(Gibco BRL, Montreal, Canada). […] Stock viruses were prepared from clarified culture supernatants by centrifugation and stored at −70° C. The viruses were titrated by limited dilution with a 4-fold serial dilution.
# [5] = tested on: recombinant HXB2-D 41L/70R/215Y/219Q; assay: microbe, parasite or virus in culture; assay type: cell-based, HIV-1; conditions: Human immunodeficiency virus 1, HXB2, read-out: EC50 in CBMCs
# Method: as §2
# recombinant HXB2-D 74V = assay: microbe, parasite or virus in culture; assay type: cell-based, HIV-1; conditions: Human immunodeficiency virus 1, HXB2, read-out: EC50 in CBMCs
# Method: as §2
# [6] = tested on: recombinant HXB2-D 41L/215Y/184V; assay: microbe, parasite or virus in culture; assay type: cell-based, HIV-1; conditions: Human immunodeficiency virus 1, HXB2, read-out: EC50 in CBMCs
# Method: as §2
# recombinant HXB2-D 184V = assay: microbe, parasite or virus in culture; assay type: cell-based, HIV-1; conditions: Human immunodeficiency virus 1, HXB2, read-out: EC50 in CBMCs
# Method: as §2
# [7] = Cytotoxicity, [3H]-thymidine uptake, HT-1080; assay type: cell-based; conditions: human, HT-1080 cells
# Method: as §1
# wt HIV-1 RT [8] = molecular target: T1, wt HIV-1 RT; assay: Chain elongation/termination assay; assay type: biochemical; conditions: HIV-PBS template, dPR primer, raising inhibitor concentration
# Method: RT inhibition assay. The inhibition of HIV-1 RT RNA dependent DNA polymerase activity of DXG-TP was assessed under steady-state enzymatic kinetics by employing homopolymeric RNA templates/DNA primers (T/P) and a heteropolymeric RNA template/DNA primer. The heteropolymeric RNA template contains the HIV-1 primer binding sequence, US and R regions (designated as HIV-PBS). […] The oligodeoxynucleotide primer (dPR) is an 18-mer (5′-[…]-3′) which is complementary to the HIV-1 primer binding sequence. […] Inhibition of dNTP incorporation/chain termination. […] HIV-PBS RNA template and dPR DNA primer were used in this system. The RT reactions were performed in […] containing 50 mM Tris (pH 7.8), 75 mM KCl, 10 mM MgCl2, 100 μM of dNTPs. […] The reactions were allowed to proceed at 37° C. for 60 min in the presence or absence of inhibitors. The transcribed DNA products were separated on a 5% denaturing polyacrylamide gel and visualized by exposure to X-ray film.
# The chain elongation/termination assay provides a method to directly visualize the products of incorporation of dideoxynucleotide monophosphates into nascent DNA by monitoring the reaction products using polyacrylamide gel electrophoresis. The experiment was performed using wt HIV-1 RT, and HIV-PBS heteropolymeric template, and [^32p]ATP labeled dPR primer in the presence of various concentrations of RT inhibitor. […] As comparison, NNRTI nevirapine was also used in the assay.
# [9] = tested on: HIV-1 clinical isolate 4877; assay: microbe, parasite or virus in culture; assay type: cell-based; conditions: Human immunodeficiency virus 1, read-out: EC50 in CBMCs
# Method: as §2
# (§3) The population of HIV-1 in infected individual is quasispecies and the sensitivity of these different viruses found in clinical isolates to antiviral chemotherapy might be quite variable. In addition, HIV-1 isolates obtained from patients receiving long-term antiretroviral therapy might behave differently from cloned virus containing genetically engineered mutations in the RT gene. For these reasons, clinical isolates of HIV-1 from antiviral naive and drug-treated patients were assayed in PHA-stimulated CBMCs for their sensitivity to DXG and DAPD accompanied with approved antiretroviral agents. The genotype of the HIV-1 clinical isolates were determined as described above.
# [10] = tested on: HIV-1 clinical isolate 4924; assay: microbe, parasite or virus in culture; assay type: cell-based
# Method: as §2, §3
# [11] = tested on: recombinant HXB2-D 106A/181C; assay: microbe, parasite or virus in culture; assay type: cell-based, HIV-1; conditions: Human immunodeficiency virus 1, HXB2, read-out: EC50 in CBMCs
# Method: as §2
# [12] = tested on: HIV-1 clinical isolate 4833; assay: microbe, parasite or virus in culture; assay type: cell-based
# Method: as §2, §3
# [13] = tested on: HIV-1 clinical isolate 4526; assay: Antiviral assay, HIV-1 clinical isolate 4526, CBMCs; assay type: cell-based; conditions: Human immunodeficiency virus 1, naive
# Method: as §2, §3
# [14] = tested on: recombinant HXB2-D 10R/46I/63P/82T/84V; assay: microbe, parasite or virus in culture; assay type: cell-based, HIV-1; conditions: Human immunodeficiency virus 1, HXB2, read-out: EC50 in CBMCs
# Method: as §2
compound,measurement,setting,value
"Cc1cn([C@H]2CC[C@@H](COP(=O)(O)OP(=O)(O)OP(=O)(O)O)O2)c(=O)[nH]c1=O [ddTTP, reference compound]",IC50,wt HIV-1 RT [1],0.024 ± 0.003 µM
"Nc1ccn([C@@H]2CS[C@H](CO)O2)c(=O)n1 [lamivudine, reference compound]",CC50 at 72 h,[2],> 500 µM
same,CC50 at 72 h,[3],400 µM
same,EC50,"HIV-1IIIB; Human immunodeficiency virus 1, Jurkat, read-out: EC50, mean values ± SD",0.53 ± 0.02 µM
same,EC50,"HIV-1IIIB; Human immunodeficiency virus 1, MT2, read-out: EC50, mean values ± SD",0.091 ± 0.08 µM
same,EC50,"HIV-1IIIB; Human immunodeficiency virus 1, MT4, read-out: EC50, mean values ± SD",0.056 ± 0.014 µM
same,EC50,"HIV-1IIIB; Human immunodeficiency virus 1, read-out: EC50, mean values ± SD",0.023 ± 0.011 µM
same,CC50 at 72 h,[4],350 µM
same,EC50,recombinant HXB2-D 65R,0.36 ± 0.17 µM
same,EC50,[5],0.062 ± 0.02 µM
same,EC50,recombinant HXB2-D 74V,0.12 ± 0.07 µM
same,EC50,[6],> 50 µM
same,EC50,recombinant HXB2-D 184V,> 50 µM
same,CC50 at 72 h,[7],> 500 µM
Nc1ccn([C@@H]2CS[C@H](COP(=O)(O)OP(=O)(O)OP(=O)(O)O)O2)c(=O)n1 [lamivudine-TP],"chain termination / full-length products, in words",wt HIV-1 RT [8],caused increasing chain termination but decreasing full-length products
"Cc1ccnc2c1NC(=O)c1cccnc1N2C1CC1 [nevirapine, reference compound]",EC50,[9],0.065 µM
same,EC50,[10]; Human immunodeficiency virus 1,> 10 µM
same,EC50,"[10]; Human immunodeficiency virus 1, read-out: EC50 in CBMCs",> 10 µM
same,EC50,[11],> 10 µM
same,"chain termination / full-length products, in words",wt HIV-1 RT [8],"showed the decrease of the full-length DNA products, but there were no extra chain termination bands generated"
"CC(C)(C)NC(=O)[C@@H]1C[C@@H]2CCCC[C@@H]2CN1C[C@@H](O)[C@H](Cc1ccccc1)NC(=O)[C@H](CC(N)=O)NC(=O)c1ccc2ccccc2n1 [saquinavir, reference compound]",decreased sensitivity compared to the baseline isolate 4526,[12],about 20 fold
same,EC50,"[12]; Human immunodeficiency virus 1, therapy Saquinavir (48 weeks), read-out: EC50 in CBMCs",0.11 µM
same,EC50,[13],0.0063 µM
same,EC50,[14],0.075 µM
"(+) enantiomer of -D-1′,3′-dioxolane guanosine",EC50,"HIV-1IIIB; read-out: EC50, mean values ± SD, MT-2 cells, HIV-1IIIB",0.7 µM
